Reference: US9234025B2, “Extracellular allosteric inhibitor binding domain from a tyrosine kinase receptor” (SANOFI, priority 2009, dated 2016)

Experiments:
FGFR2^∂23 [1] = target: T1, FGFR2^∂23 (Homo sapiens, UniProt P21802); experiment: isothermal titration calorimetry (ITC), FGFR2; type: binding
T1 construct: FGFR2^∂23 (consisting of domain D2 and 3); made in house
Description: All calorimetric experiments were performed at 30° C. with a VP-ITC titration calorimeter (MicroCal Inc., Northampton, Mass.) as previously described^45. Titrations involved the addition of 10 μL aliquots of 1.25 mM SSR via a rotating stirrer-syringe to the solution cell containing 1.407 mL of the 10-20 μM interacting protein (i.e. FGFR2^∂123, FGFR2^∂23 and its described mutants and subdomains, FGFR3^∂123, FGF1, FGF2 and Follistatin (as negative control) at 4 min intervals. A constant stirring speed of 300 rpm was maintained and data were fitted to the standard noninteracting one site model supplied by MicroCal, with n fixed as 1.0. All measurements were performed in 10 mM HEPES pH7.2, 150 mM NaCl, and proteins were purified as previously described (Pellegrini et al., 2000). Mutagenesis was performed using the ‘site directed mutagenesis kit’ (Stratagene).

HUVEC = HUVEC chemotactic migration; type: cell-based, human; settings: FGFR1-driven
Description: Confluent HUVEC cells are harvested and resuspended in RPMI 1640 (Invitrogen, 32404-014) without FCS, 2 mM glutamine, MEM non-essential amino-acid 1× (Gibco, 11140-035), MEM sodium pyruvate 1× (Gibco, 11360-039) at 0.8 10^6 cells/ml. 250 μl of cell solution is distributed with 4×SSR in the upper chamber of 24-wells BD Biocoat Angiogenesis System for endothelial cell migration (BD Biocoat, 354144) and 750 μl of medium in the lower chamber with FGF2 (R&D, 234-FSE-025), FGF4 (R&D, 235-F4-025) or FGF-19 (in house produced) at 67 ng/ml. Plates are incubated 22 h at 37° C. in a CO2 chamber. Then, plate insert is removed, and placed in a new 24-wells plate (Falcon, 353504) that contains 500 μL of calcein (Molecular probes, C-3100) for 90 min. Then migrated cells are fluorescent and migration is measured by a […] with downstairs reading following 485 nm excitation and 535 nm emission.

FGFR1 = target: T2, FGFR1 (Homo sapiens, UniProt P11362); experiment: AlexaFluor488-FGF2 binding on FGFR1-transfected 300-19 cells (flow cytometry); settings: SSR 300 nM; FGF2 10 ng/ml; murine pre-B 300-19 cells
T2 construct: V5/His (encoded by the vector); expressed in transfected cells; host or cells: murine pre-B 300-19 cells
Description: FGF2 was labeled with Alexa Fluor 488 C5-maleimide (Invitrogen, A10254) following purchaser recommendations.
This AF488-FGF2 was used at 10 ng/ml in binding experiments on murine pre-B 300-19 cells transfected with FGFR1 or FGFR4 constructs in pEF6-V5/His Topo plasmids (Invitrogen). SSR (300 nM final) was pre-incubating 20 min with cells in RPMI 1640 (Invitrogen, 32404-014) with 10% FCS (Hyclone, SH30070.03), 2 mM glutamine, MEM non-essential amino-acid 1× (Gibco, 11140-035), MEM sodium pyruvate 1× (Gibco, 11360-039) and […] monothioglycerol (Sigma, M6145) at 4° C. under 150 rpm agitation. Then, FGF2 (10 ng/ml final) is added for 30 min and binding is measured using a FACS Calibur flow cytometer (Beckton Dickinson). Fluorescence median for each condition is also analysed.

[2] = target: T3, hFGFR1IIIcα-Hemagluttinin (Homo sapiens, UniProt P11362); experiment: FGFR1 phosphorylation in rat fat-pad endothelial cells; type: cell-based
T3 construct: expressed in transfected cells; host or cells: rat fat-pad endothelial cells (RFPEC)
Description: Rat fat-pad endothelial cells, stably transfected with hFGFR1IIIcα-Hemagluttinin, were grown to 80-90% confluency and serum starved (0.5% FBS) for 24 h. Stimulation was performed during 5 minutes with FGF2 at 2 ng/ml in combination with SSR or DMSO (as control). Cell lysates were centrifuged at 12,000 g for 10 min, and the supernatants were collected. HA-tagged proteins were immunoprecipitated by incubation of cell lysates overnight at 4° C. in the presence of agarose conjugated anti-HA antibodies. Immune complexes were washed three times with 1 ml of lysis buffer; proteins were eluted via incubation with 50 μl of 2×SDS sample buffer and boiling. Proteins were separated on Novex polyacrylamide gels (Invitrogen, Carlsbad, Calif.) and subsequently transferred onto Hybond ECL nitrocellulose membranes (Amersham Pharmacia). Following incubation with 5% non-fat milk powder in PBS, the membranes were incubated overnight at 4° C. with the following antibodies: pFGFR (CST: 3471) and FGFR1 (CST: 3472).

FGFR2^∂23 [3] = target: T1, FGFR2^∂23; experiment: Fourier transform infrared (FTIR) measurement, FGFR2 D2-3; settings: maximum around 1,640 cm^−1, 100 μM SSR
Description: Fourier transform infrared measurements were performed using a Bruker Tensor 37 FT-IR spectrometer equipped with an AquaSpec flowcell. The sample compartment was thermostatted to 25° C., 100 spectra were averaged for a good signal to noise ratio. Proteins were purified as described above. Immediately after the gelfiltration, the proteins were dialysed overnight in the same preparation of buffer (10 mM Hepes pH 7.2, 150 mM NaCl) in the presence or absence of SSR. Dialysis buffer samples were used to substract background signal. The analysis was performed using the OPUS software package, provided by Bruker. Interpretation of the results was performed as described {Barth, 2002 #60}.

[4] = system: human umbilical vein endothelial cells (HUVECs); experiment: I125-FGF2 binding assay on HUVECs; settings: intact cells, SSR even at high μM concentrations

T1 sequence (P21802 148-366 limits assumed): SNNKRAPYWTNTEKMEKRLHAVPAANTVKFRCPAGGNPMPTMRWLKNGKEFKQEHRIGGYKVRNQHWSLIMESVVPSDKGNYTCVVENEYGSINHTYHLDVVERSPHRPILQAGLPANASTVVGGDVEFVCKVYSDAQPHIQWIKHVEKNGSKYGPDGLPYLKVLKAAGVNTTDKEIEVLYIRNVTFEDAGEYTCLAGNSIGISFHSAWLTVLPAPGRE
T3 sequence (P11362 22-822): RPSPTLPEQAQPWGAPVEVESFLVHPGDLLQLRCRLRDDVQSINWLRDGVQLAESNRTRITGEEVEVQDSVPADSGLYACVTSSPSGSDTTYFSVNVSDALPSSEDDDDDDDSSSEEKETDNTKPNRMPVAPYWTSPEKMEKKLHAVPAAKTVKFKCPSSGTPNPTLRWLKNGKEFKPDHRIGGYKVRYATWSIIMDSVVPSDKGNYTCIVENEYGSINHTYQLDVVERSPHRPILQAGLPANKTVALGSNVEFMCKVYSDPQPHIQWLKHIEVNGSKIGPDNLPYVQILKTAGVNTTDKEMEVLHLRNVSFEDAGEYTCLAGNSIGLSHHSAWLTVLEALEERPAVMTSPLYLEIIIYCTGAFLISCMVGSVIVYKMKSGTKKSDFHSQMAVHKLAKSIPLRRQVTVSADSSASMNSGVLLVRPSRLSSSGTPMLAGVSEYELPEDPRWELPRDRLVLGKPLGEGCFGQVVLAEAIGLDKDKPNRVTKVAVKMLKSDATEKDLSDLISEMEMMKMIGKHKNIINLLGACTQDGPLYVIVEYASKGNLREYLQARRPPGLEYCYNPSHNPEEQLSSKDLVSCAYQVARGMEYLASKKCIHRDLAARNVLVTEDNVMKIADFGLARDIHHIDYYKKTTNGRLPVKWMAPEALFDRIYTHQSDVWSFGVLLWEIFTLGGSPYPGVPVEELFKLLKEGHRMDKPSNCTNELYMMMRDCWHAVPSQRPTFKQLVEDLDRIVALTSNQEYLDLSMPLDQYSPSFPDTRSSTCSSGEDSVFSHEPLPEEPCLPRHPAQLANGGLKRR
T2 sequence (P11362 22-822): as above

## COc1c(C)c(C(=O)c2ccc(N)c(C(=O)[O-])c2)n2ccccc12.[Na+] [SSR]
FGFR2^∂23 [1]
  binding to FGFR2: bound
HUVEC
  FGF2-induced HUVEC chemotactic migration: reduction of FGF2-induced HUVEC chemotactic migration
FGFR1
  competition with AlexaFluor488-labelled FGF2 binding to FGFR1: not able to compete this binding
[2]; SSR in the nanomolar concentration range
  FGF2-induced FGFR1 tyrosine phosphorylation: highly reduced
[2]; even at high doses
  residual FGFR1 tyrosine phosphorylation: does not completely eliminate FGFR1 tyrosine phosphorylation
FGFR2^∂23 [3]
  change of FTIR spectrum (conformational change): increase in the amplitude of the amide I band
[4]
  inhibition of I^125-FGF2 binding to its receptor: unable to inhibit I^125-FGF2 binding
